From ChEMBL document CHEMBL1158296, “(Hydroxymethyl)acylfulvene: an illudin derivative with superior antitumor properties” (J Nat Prod, 1996)
Active and inactive are the calls of the source. No cut-off for these calls is given here.

Columns and labels:
[1] = tested on: HL-60; assay: Cytotoxicity against human HL60 cells after 48 hrs by trypan blue exclusion method; type: functional, cell-based
[2] = Antitumor activity against human MV522 cells xenografted BALB/c nu/nu mouse assessed as increase in life span at 10 mg/kg, iv administered three times per week for 3 weeks; type: functional
[3] = tested on: MV522; assay: Antitumor activity against human MV522 cells xenografted BALB/c nu/nu mouse assessed as induction of tumor regression at 10 mg/kg, iv administered three times per week for 3 weeks; type: functional, organism-based; design: dose 10 mg/kg
[4] = Homo sapiens, HL-60, 48 h, read-out: IC50

| SMILES | IC50 [1, 4] | other results |
| --- | --- | --- |
| COc1ccc(CC2=C(C)C=C3C(=O)[C@](C)(O)C4(CC4)C(C)=C32)cc1 | 1.05 µM | – |
| CC1=C(CSc2ccc(C)cc2)C2=C(C)C3(CC3)[C@@](C)(O)C(=O)C2=C1 | – | IC50 ([1]; hl-60): ND(Insoluble) |
| CC1=C(Cc2ccc(O)cc2)C2=C(C)C3(CC3)[C@@](C)(O)C(=O)C2=C1 | 0.38 µM | – |
| CC1=CC2=C(C)C3(CC3)[C@@](C)(O)C(=O)C2=C1 [ACYLFULVENE] | 0.415 µM | – |
| CC1=C2C(=O)C(C)(C)C=C2C(=O)[C@](C)(O)C12CC2 [DEHYDROILLUDIN M] | 0.296 µM | – |
| CC1=C(CO)C2=C(C)C3(CC3)[C@@](C)(O)C(=O)C2=C1 [IROFULVEN] | 0.073 µM | Activity [2]: 150%; Activity [3]: Active |
